Test results as given in patent US20050003509A1, “Method for modulating C.albicans” (priority 2003, published 2005).

Legend:
C.albicans [1] = assay: induction of morphological transition (hyphae) in buffer; assay type: cell-based; conditions: 10 mM proline or 2.5 mM Glc-Nac in 10 mM MES pH 6.4, 12 hours, 37° C.
Method: To test this, stains were grown in YPD, as described supra, washed, and were resuspended in buffer at an OD600 of 1, or buffer (10 MM MES, pH 6.4) containing either 10 mM proline, or 2.5 mM Glc-Nac. The suspensions were incubated for 12 hours, at 37° C., after which the suspensions were examined microscopically.

[2] = test system: S.cervesiae strain FGY145; assay: growth of transformed shr3Δ6 S.cervesiae strain FGY145 with toxic amino acids; assay type: cell-based, S.cerevisiae; conditions: 30° C., six days
Method: Standard culture conditions and media for S.cervesiae and C.albicans have been described by Sherman, in Guthrie, ed. Guide to Yeast Genetics And Molecular Biology (Academic Press, 1991), pp. 3-21, incorporated by reference. To elaborate, Ura^− strains of C.albicans were grown in standard media, supplemented with 25 μg/ml of uridine. Tests on S.cerevisiae were carried out in SD medium supplemented with histidine, as well as various toxic amino acid analogs, i.e., L-canaranine (1 μg/ml), L-azetidine-2-carboxylate (500 μg/ml), B-chloro-D, L-alanine (100 μg/ml), p-fluoro-D, L-phenylalanine (400 μg/ml), D, L-ethionine (300 μg/ml), and 2-aminoethyl-L-cysteine (225 μg/ml). Ljungdahl, et al., Cell, 71:463-478 (1992), was followed to produce SPD and SPD containing 30 mM histidine.
Cell suspension of shr3Δ6 S.cervesiae strain FGY145 described by Gilstring, et al., Mol. Cell Biol., 10:3549-3565 (1999), were transformed with either control plasma pRS316, pPL210, which encodes SHR3 and is described by Ljungdahl, et al., supra, or pPM20, which encodes CSH3, and is described supra. The transformants were spotted on the described SD media, and grown in the presence of the toxic amino acids described supra. Suspensions of the cells were also grown on SPD, and SPD containing 30 mM histidine. […]

C.albicans [3] = assay: growth on YNB medium with lysine as sole nitrogen source; assay type: cell-based; conditions: 0, 0.1, 1 and 3 mM lysine
Method: Cells were then grown on YNB medium, containing varying concentrations of lysine (0, 0.1, 1 and 3 mM), as sole nitrogen source. A striking gene dosage effect was observed. As expected, none of the strains were able to grow in the absence of lysine, whereas they grew weakly when 0.1 mM lysine was present, showing the C.albicans can metabolize lysine. […] The heterozygous strains have balanced the opposing activities.

SMILES: CC(=O)N[C@H]1C(O)O[C@H](CO)[C@@H](O)[C@@H]1O (stereo partly drawn) [Glc-Nac, N-acetyl glucosamine]
- hyphal development (C.albicans [1]; (+/+) wild type): extensive hyphal development
- hyphal development (C.albicans [1]; (−/−) cells): extensive hyphal development

SMILES: N[C@@H](Cc1c[nH]cn1)C(=O)O [histidine]
- growth sensitivity ([2]; transformants carrying SHR3 (CSH3 transformants indistinguishable)): sensitive
- growth sensitivity ([2]; transformants with control plasmid pRS316): resistant

SMILES: NCCCC[C@H](N)C(=O)O [lysine]
- growth with increasing lysine concentration (C.albicans [3]; CSH3/CSH3 (+/+) strain): decrease at concentrations above 1 mM
- growth with increasing lysine concentration (C.albicans [3]; heterozygous strains): robust growth at concentrations greater than 1 mM
- growth with increasing lysine concentration (C.albicans [3]; homozygous null mutant): improved noticeably

SMILES: O=C(O)[C@@H]1CCCN1 [proline]
- hyphal development (C.albicans [1]; (+/+) wild type): developed hyphae readily
- hyphal development (C.albicans [1]; (−/−) cells): only a few cells with short germ tubules
